Reference: patent US10072003B2, “Tetrahydronaphthyridine derivatives as mGluR2-negative allosteric modulators, compositions, and their use” (Merck Sharp & Dohme Corp., priority 2014, dated 2018)

These compounds were tested against recombinant human mGluR2 (Homo sapiens (Human), UniProt Q14416) (assay: FLIPR Ca2+ mobilization antagonist assay in CHO dhfr- cells expressing human mGluR2 and Gα16). Conditions: antagonist response after addition of 2,500 nM glutamate, Fluo-4 AM, FLIPR384.
Assay type: cell-based
Method: Antagonist constants are determined as follows. The compounds of the invention were tested in a fluorescence laser imaging plate reader based assay. This assay is a common functional assay to monitor Ca2+ mobilization in whole cells expressing recombinant receptor coupled with a promiscuous G-protein. CHO dhfr-cells stably expressing recombinant human mGluR2 and Gα16 loaded with Fluo-4 AM (Invitrogen, Carlsbad Calif.) were treated with various concentrations of antagonists of compounds and the Ca2+ response was monitored on a FLIPR384 (Molecular Devices, Sunnydale Calif.) for agonist activity. Then 2,500 nM glutamate was added and the antagonist response was monitored. The maximum calcium response at each concentration of compound for agonist or antagonist were plotted as dose responses and the curves were fitted with a four parameter logistic equation giving IC50 and Hill coefficient using the iterative non linear curve fitting software ADA (Merck & Co). Data in the following table represent activities in the antagonist assay.

recombinant human mGluR2, sequence (Q14416 19-872): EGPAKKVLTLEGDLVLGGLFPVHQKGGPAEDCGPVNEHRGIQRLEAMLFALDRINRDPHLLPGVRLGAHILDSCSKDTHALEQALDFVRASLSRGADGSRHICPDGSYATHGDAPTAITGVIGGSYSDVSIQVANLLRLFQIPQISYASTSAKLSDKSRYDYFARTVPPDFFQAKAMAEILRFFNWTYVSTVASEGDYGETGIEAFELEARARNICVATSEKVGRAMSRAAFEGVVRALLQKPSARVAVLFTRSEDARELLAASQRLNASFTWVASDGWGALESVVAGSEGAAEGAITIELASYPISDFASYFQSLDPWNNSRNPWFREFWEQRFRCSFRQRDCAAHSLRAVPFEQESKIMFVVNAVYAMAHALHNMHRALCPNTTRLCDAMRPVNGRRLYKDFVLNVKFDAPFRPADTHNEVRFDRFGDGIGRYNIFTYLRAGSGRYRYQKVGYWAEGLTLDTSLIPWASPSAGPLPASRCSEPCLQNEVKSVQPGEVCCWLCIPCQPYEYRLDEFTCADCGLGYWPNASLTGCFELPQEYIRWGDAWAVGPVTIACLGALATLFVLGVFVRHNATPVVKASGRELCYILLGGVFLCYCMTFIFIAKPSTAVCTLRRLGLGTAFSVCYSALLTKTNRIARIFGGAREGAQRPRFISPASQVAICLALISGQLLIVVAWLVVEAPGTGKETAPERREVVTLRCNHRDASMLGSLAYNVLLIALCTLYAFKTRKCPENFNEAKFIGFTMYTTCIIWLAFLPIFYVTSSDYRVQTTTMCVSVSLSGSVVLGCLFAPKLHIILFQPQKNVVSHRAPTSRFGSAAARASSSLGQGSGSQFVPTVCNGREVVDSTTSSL

| Structure (SMILES) | IC50 |
| --- | --- |
| CC(c1cnnn1C)N1CCc2c(-c3ccc(F)cc3F)cc(C(N)=O)nc2C1 (single isomer, unassigned) [Example 7-1, (S) or (R)-4-(2,4-difluorophenyl)-7-(1-(1-methyl-1H-1,2,3-triazol-5-yl)ethyl)-5,6,7,8-tetrahydro-1,7-naphthyridine-2-carboxamide] | 0.0374 µM |
| CC(c1cnnn1C)N1CCc2c(-c3ccc(F)cc3F)cc(C(N)=O)nc2C1 (single isomer, unassigned) [Example 7-2, (R) or (S)-4-(2,4-difluorophenyl)-7-[(1R)-1-(1-methyl-1H-1,2,3-triazol-5-yl)ethyl]-5,6,7,8-tetrahydro-1,7-naphthyridine-2-carboxamide] | 0.0459 µM |
| CC(c1ccnc(C(F)(F)F)c1)N1CCc2c(-c3cnn(C(F)F)c3)cc(C(N)=O)nc2C1 (single isomer, unassigned) [Example 7-3A, (S) or (R)-4-[1-(difluoromethyl)-1H-pyrazol-4-yl]-7-{(1R)-1-[2-(trifluoromethyl)pyridin-4-yl]ethyl}-5,6,7,8-tetrahydro-1,7-naphthyridine-2-carboxamide] | 0.0293 µM |
| CC(c1ccnc(C(F)(F)F)c1)N1CCc2c(-c3cnn(C(F)F)c3)cc(C(N)=O)nc2C1 (single isomer, unassigned) [Example 7-3B, (R) or (S)-4-[1-(difluoromethyl)-1H-pyrazol-4-yl]-7-{(1S)-1-[2-(trifluoromethyl)pyridin-4-yl]ethyl}-5,6,7,8-tetrahydro-1,7-naphthyridine-2-carboxamide] | 0.0212 µM |
| NC(=O)c1cc(-c2ccc(F)cc2F)c2c(n1)CN(CC(O)c1ccccc1)CC2 (single isomer, unassigned) [Example 8-3A, (S) or (R)-4-(2,4-difluorophenyl)-7-[(2S or 2R)-2-hydroxy-2-phenylethyl]-5,6,7,8-tetrahydro-1,7-naphthyridine-2-carboxamide] | 0.0185 µM |
| NC(=O)c1cc(-c2ccc(F)cc2F)c2c(n1)CN(CC(O)c1ccccc1)CC2 (single isomer, unassigned) [Example 8-3B, (R) or (S)-4-(2,4-difluorophenyl)-7-[(2R or 2S)-2-hydroxy-2-phenylethyl]-5,6,7,8-tetrahydro-1,7-naphthyridine-2-carboxamide] | 0.0127 µM |
| CC1(C)CC(F)(CN2CCc3c(-c4ccc(F)cc4F)cc(C(N)=O)nc3C2)CO1 (single isomer, unassigned) [Example 14-1A] | 0.0174 µM |
| CC1(C)CC(F)(CN2CCc3c(-c4ccc(F)cc4F)cc(C(N)=O)nc3C2)CO1 (single isomer, unassigned) [Example 14-1B] | 0.0178 µM |
| CC1(C)CC(O)(CN2CCc3c(-c4ccc(F)cc4F)cc(C(N)=O)nc3C2)CCO1 (single isomer, unassigned) [Example 14-2A] | 0.0317 µM |
| CC1(C)CC(O)(CN2CCc3c(-c4ccc(F)cc4F)cc(C(N)=O)nc3C2)CCO1 (single isomer, unassigned) [Example 14-2B] | 0.0271 µM |
| CC1(C)CC(O)(CN2CCc3c(-c4ccc(F)cc4F)cc(C(N)=O)nc3C2(C)C)CO1 (single isomer, unassigned) [Example 15-1A] | 0.0249 µM |
| CC1(C)CC(O)(CN2CCc3c(-c4ccc(F)cc4F)cc(C(N)=O)nc3C2(C)C)CO1 (single isomer, unassigned) [Example 15-1B] | 0.0236 µM |
| NC(=O)c1cc(-c2ccc(F)cc2)c2c(n1)CN(C[C@H]1CCN[C@@H](C(F)(F)F)C1)CC2 [Example 1-1A, 4-(4-fluorophenyl)-7-(((2R,4S)-2-(trifluoromethyl)piperidin-4-yl)methyl)-5,6,7,8-tetrahydro-1,7-naphthyridine-2-carboxamide] | 0.0982 µM |
| NC(=O)c1cc(-c2ccc(F)cc2)c2c(n1)CN(C[C@@H]1CCN[C@H](C(F)(F)F)C1)CC2 [Example 1-1B, 4-(4-fluorophenyl)-7-(((2S,4R)-2-(trifluoromethyl)piperidin-4-yl)methyl)-5,6,7,8-tetrahydro-1,7-naphthyridine-2-carboxamide] | 0.0982 µM |
| NC(=O)c1cc(-c2ccc(F)cc2)c2c(n1)CN(CCc1cccnc1N)CC2 [Example 1-4, 7-(2-(2-aminopyridin-3-yl)ethyl)-4-(4-fluorophenyl)-5,6,7,8-tetrahydro-1,7-naphthyridine-2-carboxamide] | 0.0835 µM |

Continued, values first:

| IC50 | Structure (SMILES) |
| --- | --- |
| 0.0244 µM | CC1(C)CCC(CN2CCc3c(-c4ccc(F)cc4F)cc(C(N)=O)nc3C2)CO1 (single isomer, unassigned) [Example 1-20, (S) or (R)-4-(2,4-difluorophenyl)-7-[(6,6-dimethyltetrahydro-2H-pyran-3-yl)methyl]-5,6,7,8-tetrahydro-1,7-naphthyridine-2-carboxamide] |
| 0.0093 µM | CC1(C)CCC(CN2CCc3c(-c4ccc(Cl)cc4F)cc(C(N)=O)nc3C2)CO1 (single isomer, unassigned) [Example 1-21, (S) or (R)-4-(4-chloro-2-fluorophenyl)-7-[(6,6-dimethyltetrahydro-2H-pyran-3-yl)methyl]-5,6,7,8-tetrahydro-1,7-naphthyridine-2-carboxamide] |
| 0.0506 µM | COC1CCN(c2cc(C(N)=O)nc3c2CCN(Cc2ccnn2C(C)C)C3C)CC1 (single isomer, unassigned) [Example 1-22, (S) or (R)-4-(4-methoxypiperidin-1-yl)-8-methyl-7-{[1-(1-methylethyl)-1H-pyrazol-5-yl]methyl}-5,6,7,8-tetrahydro-1,7-naphthyridine-2-carboxamide] |
| 0.0184 µM | CC1CCCN(c2cc(C(N)=O)nc3c2CCN(Cc2ccnc(C(F)(F)F)c2)C3)C1 (single isomer, unassigned) [Example 5-5A, (S) or (R)-4-(3-methylpiperidin-1-yl)-7-((2-(trifluoromethyl)pyridin-4-yl)methyl)-5,6,7,8-tetrahydro-1,7-naphthyridine-2-carboxamide] |
| 0.0129 µM | CC1CCCN(c2cc(C(N)=O)nc3c2CCN(Cc2ccnc(C(F)(F)F)c2)C3)C1 (single isomer, unassigned) [Example 5-5B, (R) or (S)-4-(3-methylpiperidin-1-yl)-7-((2-(trifluoromethyl)pyridin-4-yl)methyl)-5,6,7,8-tetrahydro-1,7-naphthyridine-2-carboxamide] |
| 0.0214 µM | NC(=O)c1cc(N2CCCC(F)C2)c2c(n1)CN(Cc1ccnc(C(F)(F)F)c1)CC2 (single isomer, unassigned) [Example 5-6A, (S) or (R)-4-(3-fluoropiperidin-1-yl)-7-((2-(trifluoromethyl)pyridin-4-yl)methyl)-5,6,7,8-tetrahydro-1,7-naphthyridine-2-carboxamide] |
| 0.0173 µM | NC(=O)c1cc(N2CCCC(F)C2)c2c(n1)CN(Cc1ccnc(C(F)(F)F)c1)CC2 (single isomer, unassigned) [Example 5-6B, (R) or (S)-4-(3-fluoropiperidin-1-yl)-7-((2-(trifluoromethyl)pyridin-4-yl)methyl)-5,6,7,8-tetrahydro-1,7-naphthyridine-2-carboxamide] |
| 0.0927 µM | CN1CCN(c2cc(C(N)=O)nc3c2CCN(Cc2ccnc(C(F)(F)F)c2)C3)CC1C(F)(F)F (single isomer, unassigned) [Example 5-9, (S) or (R)-4-(4-methyl-3-(trifluoromethyl)piperazin-1-yl-7-((2-(trifluoromethyl)pyridin-4-yl)methyl)-5,6,7,8-tetrahydro-1,7-naphthyridine-2-carboxamide] |
| 0.0201 µM | CC(c1ccnn1C)N1CCc2c(-c3ccc(F)cc3F)cc(C(N)=O)nc2C1 (single isomer, unassigned) [Example 7-4, (S) or (R)-4-(2,4-difluorophenyl)-7-[(1S)-1-(1-methyl-1H-pyrazol-5-yl)ethyl]-5,6,7,8-tetrahydro-1,7-naphthyridine-2-carboxamide] |
| 0.129 µM | NC(=O)c1cc(-c2ccc(F)cc2)c2c(n1)CN(C[C@@H]1CCO[C@H](C3CC3)C1)CC2 [Example 1-2A, 7-(((2S,4R)-2-cyclopropyltetrahydro-2H-pyran-4-yl)methyl)-4-(4-fluorophenyl)-5,6,7,8-tetrahydro-1,7-naphthyridine-2-carboxamide] |
| 0.129 µM | NC(=O)c1cc(-c2ccc(F)cc2)c2c(n1)CN(C[C@H]1CCO[C@@H](C3CC3)C1)CC2 [Example 1-2B, 7-(((2R,4S)-2-cyclopropyltetrahydro-2H-pyran-4-yl)methyl)-4-(4-fluorophenyl)-5,6,7,8-tetrahydro-1,7-naphthyridine-2-carboxamide] |
| 0.132 µM | CC(C)(C)[C@@H]1C[C@H](CN2CCc3c(-c4ccc(F)cc4)cc(C(N)=O)nc3C2)CCO1 [Example 1-3A, 7-(((2S,4R)-2-(tert-butyl)tetrahydro-2H-pyran-4-yl)methyl)-4-(4-fluorophenyl)-5,6,7,8-tetrahydro-1,7-naphthyridine-2-carboxamide] |
| 0.179 µM | CC(C)(C)[C@H]1C[C@@H](CN2CCc3c(-c4ccc(F)cc4)cc(C(N)=O)nc3C2)CCO1 [Example 1-3B, 7-(((2R,4S)-2-(tert-butyl)tetrahydro-2H-pyran-4-yl)methyl)-4-(4-fluorophenyl)-5,6,7,8-tetrahydro-1,7-naphthyridine-2-carboxamide] |
| 0.0145 µM | Cn1nccc1CN1CCc2c(-c3ccc(F)cc3F)cc(C(N)=O)nc2C1 [Example 1-6, 4-(2,4-difluorophenyl)-7-[(1-methyl-1H-pyrazol-5-yl)methyl]-5,6,7,8-tetrahydro-1,7-naphthyridine-2-carboxamide] |
| 0.0138 µM | Cc1cc(CN2CCc3c(-c4ccc(F)cc4F)cc(C(N)=O)nc3C2)n(C)n1 [Example 1-7, 4-(2,4-difluorophenyl)-7-[(1,3-dimethyl-1H-pyrazol-5-yl)methyl]-5,6,7,8-tetrahydro-1,7-naphthyridine-2-carboxamide] |
